Read-outs that look alike come from different tables or passages of the source. Values belong to the molecule of their own block, whether it stands above or below them. Bridge positions count the residues as written; N and C are the ends. Square brackets hold non-standard residues; d marks the D form. Peptide text beside a SMILES is read from it. 2Nal = N[C@@H](Cc1ccc2ccccc2c1)C(=O)O; Met(O2) = CS(=O)(=O)CC[C@H](N)C(=O)O; 2Pal = N[C@@H](Cc1ccccn1)C(=O)O; Tic = O=C(O)[C@@H]1Cc2ccccc2CN1; Chg = N[C@H](C(=O)O)C1CCCCC1
Legend:
[1] = 20-membered ring
[2] = Stability in mouse serum; type: in vitro ADME
[3] = molecular target: VLA-4-IgG chimeric protein (Homo sapiens, UniProt P05556+P13612); assay: Inhibition of binding of CS-1 peptide and VLA-4-IgG chimeric protein; settings: binding of immobilized CS-1 peptide and VLA-4-IgG chimeric protein, absorbance at 490 nm
VLA-4-IgG chimeric protein, sequence (P13612 34-1032, change not shown): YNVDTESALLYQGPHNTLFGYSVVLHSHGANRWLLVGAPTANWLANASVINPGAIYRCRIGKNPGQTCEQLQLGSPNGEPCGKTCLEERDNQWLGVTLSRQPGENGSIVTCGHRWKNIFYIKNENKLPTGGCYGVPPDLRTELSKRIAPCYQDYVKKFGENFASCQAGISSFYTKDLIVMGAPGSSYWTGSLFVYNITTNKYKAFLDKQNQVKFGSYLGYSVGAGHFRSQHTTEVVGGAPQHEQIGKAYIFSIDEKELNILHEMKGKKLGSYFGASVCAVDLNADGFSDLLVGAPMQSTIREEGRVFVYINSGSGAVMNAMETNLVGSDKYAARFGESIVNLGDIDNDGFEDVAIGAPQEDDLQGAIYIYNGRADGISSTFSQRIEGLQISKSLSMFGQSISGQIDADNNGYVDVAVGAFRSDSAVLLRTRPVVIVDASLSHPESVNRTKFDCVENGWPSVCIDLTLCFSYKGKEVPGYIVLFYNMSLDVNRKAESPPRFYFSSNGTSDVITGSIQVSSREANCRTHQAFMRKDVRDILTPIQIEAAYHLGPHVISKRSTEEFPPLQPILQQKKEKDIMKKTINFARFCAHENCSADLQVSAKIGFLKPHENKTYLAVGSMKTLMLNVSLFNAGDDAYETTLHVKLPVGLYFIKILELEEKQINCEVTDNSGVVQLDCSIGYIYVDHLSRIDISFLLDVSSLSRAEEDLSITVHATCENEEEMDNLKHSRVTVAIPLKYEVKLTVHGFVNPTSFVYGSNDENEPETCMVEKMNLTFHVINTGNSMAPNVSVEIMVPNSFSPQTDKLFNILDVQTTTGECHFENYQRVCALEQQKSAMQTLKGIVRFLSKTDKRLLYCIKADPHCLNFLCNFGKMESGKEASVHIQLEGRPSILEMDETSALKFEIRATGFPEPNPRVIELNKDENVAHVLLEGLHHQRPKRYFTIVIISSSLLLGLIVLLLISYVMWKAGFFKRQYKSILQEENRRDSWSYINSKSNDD
VLA-4-IgG chimeric protein, sequence (P05556 21-798, change not shown): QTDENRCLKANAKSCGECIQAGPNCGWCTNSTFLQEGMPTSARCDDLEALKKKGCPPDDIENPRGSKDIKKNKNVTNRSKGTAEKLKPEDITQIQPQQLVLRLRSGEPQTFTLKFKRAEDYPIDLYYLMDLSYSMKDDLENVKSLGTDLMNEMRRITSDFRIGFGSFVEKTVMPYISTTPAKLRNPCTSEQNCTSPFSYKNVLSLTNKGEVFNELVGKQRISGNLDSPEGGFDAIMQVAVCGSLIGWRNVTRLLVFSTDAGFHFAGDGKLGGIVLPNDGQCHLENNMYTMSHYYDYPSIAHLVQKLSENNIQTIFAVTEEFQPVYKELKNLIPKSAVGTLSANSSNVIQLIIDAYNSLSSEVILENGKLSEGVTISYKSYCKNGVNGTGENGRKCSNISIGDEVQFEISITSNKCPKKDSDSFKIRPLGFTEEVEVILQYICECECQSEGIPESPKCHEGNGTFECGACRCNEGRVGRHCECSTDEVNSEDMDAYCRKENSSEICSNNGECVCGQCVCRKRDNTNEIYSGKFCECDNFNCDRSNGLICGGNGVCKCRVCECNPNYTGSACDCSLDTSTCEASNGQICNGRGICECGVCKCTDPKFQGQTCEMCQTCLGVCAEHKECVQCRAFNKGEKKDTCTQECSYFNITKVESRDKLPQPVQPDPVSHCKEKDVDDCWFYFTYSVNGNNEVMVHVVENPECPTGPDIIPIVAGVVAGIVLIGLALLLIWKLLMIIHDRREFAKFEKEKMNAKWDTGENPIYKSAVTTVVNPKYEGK
From the text: As the method for investigating the adhesion inhibiting activity in terms of VLA-4, there can be used an adhesion measuring system for cells such as Ramos cells and Jurkat cells, and fibronectin or a fibronectin fragment, for example a peptide consisting of the CS-1 sequence (Gly Pro Glu Ile Leu Asp Val Pro Ser Thr SEQ ID NO:59) [hereinafter referred to as the CS-1 peptide], immobilized on an immunoplate. Furthermore, as another method, there can be used a binding measurement system for VLA-4 protein and fibronectin or a fibronectin fragment, for example the CS-1 peptide, immobilized on an immunoplate or the like. In the present invention, it is preferred that the inhibiting activity of a compound be evaluated in a binding measurement system for a VLA-4 and immunoglobulin chimeric protein (VLA-4-IgG chimeric protein) and a peptide containing the CS-1 sequence (WO98/032771), but there is no restriction thereto. Reference here to VLA-4-IgG chimeric protein means a heterodimer complex molecule formed when a VLA-4 α4 and immunoglobulin chimeric protein (referred to hereinafter as the VLAα4.IgG chimeric protein) and a VLA-4 β1 and immunoglobulin chimeric protein (referred to hereinafter as the VLAβ1.IgG chimeric protein) undergo association. Moreover, for the immunoglobulin, there can be used heavy or light chains of IgG, IgM or the like, and in the present invention IgG1 heavy chains were used. When observing the cyclic peptide inhibition effect, it is best to use a previously prepared mixture of the α4.IgG heavy chain-β1.IgG heavy chain chimeric protein heterodimer complex and the test material.
Cyclic peptide inhibiting effect in terms of the binding of CS-1 peptide and VLA-4-IgG chimeric protein.
A conjugate of the peptide containing the CS-1 sequence shown in SEQ ID NO:57 and rabbit IgG (Sigma) was prepared in accordance with the literature (Humphries, M. J. et al, J. Biol. Chem., 262, 6886-6892 (1987)). This was diluted with PBS(−), and 100 μl/well quantities introduced into a 96 well immunoplate (NUNC), after which this was left to stand for 16 hours at 4° C. and the CS-1 peptide immobilized.
Gys Lue His Gly Pro Glu Ile Leu Asp Val Pro Ser Thr (SEQ ID NO:57)
Next, after washing the interior of the wells twice with PBS(−), 300 μl/well quantities of 1% BSA-PBS solution which had been heat treated for 10 minutes at 80° C. were introduced, then left for 3 hours at 4° C., after which the solution inside the wells was removed by suction.
Each cyclic peptide and VLA-4-IgG chimeric protein (100 μl) were reacted together beforehand for 20 minutes at room temperature, and then reaction carried out for 3 hours at 30° C. with the CS-1 peptide. Subsequently, the non-bonded VLA-4-IgG chimeric protein was removed by suction, and washed away twice with TBS buffer (150 mM NaCl, 25 mM Tris-HCl, 1 mM MnCl2 pH 7.4) containing 0.1% BSA. To the bonded VLA-4-IgG chimeric protein, biotin labelled anti-human IgG antibody (Vector) as the first antibody was added, and then avidin labelled horseradish peroxidase (Sigma) was added as the second antibody and reaction carried out. Following the reaction, o-phenylenediamine was added as a substrate and colour development effected, and then the absorbance measured at 490 nm. From this absorbance, the binding inhibition activity due to the respective peptides was determined.

[4] = disulfide bond, K3[Fe(CN)6]/NH3 pH 7.5-8, water
[5] = amide bond, with chain assembly

Molecule: CC(C)C[C@@H]1NC(=O)[C@H](Cc2c[nH]cn2)NC(=O)[C@H](CC(=O)O)NC(=O)[C@H](C(C)C)NC(=O)[C@@H](N)CSSC[C@@H](C(=O)O)NC1=O [C*VDHLC*]
- ring closure, yield after HPLC ([1]; from H-Cys(Acm)-Val-Asp-His-Leu-Cys(Acm)-OH, disulfide bond, AgOTf/anisole/TFA, then DMSO/HCl, 50% DMSO-1N HCl, 2 steps): 75%

Molecule: CC[C@@H](C)[C@H]1NC(=O)[C@@H](N)CSSC[C@@H](C(=O)O)NC(=O)[C@H](CC(C)C)NC(=O)[C@H](Cc2c[nH]cn2)NC(=O)[C@H](CC(=O)O)NC1=O [C*dIDHLC*]
- ring closure, yield after HPLC ([1]; from H-Cys(Acm)-dIle-Asp-His-Leu-Cys(Acm)-OH, disulfide bond, AgOTf/anisole/TFA, then DMSO/HCl, 50% DMSO-1N HCl, 2 steps): 72%

Molecule: CC(C)C[C@@H]1NC(=O)[C@H](CO)NC(=O)[C@H](CC(=O)O)NC(=O)[C@@H](CC(C)C)NC(=O)[C@@H](N)CSSC[C@@H](C(=O)O)NC1=O [C*dLDSLC*]
- ring closure, yield after HPLC ([1]; from H-Cys(Acm)-dLeu-Asp-Ser-Leu-Cys(Acm)-OH, disulfide bond, AgOTf/anisole/TFA, then DMSO/HCl, 50% DMSO-1N HCl, 2 steps): 77%

Molecule: CC(C)C[C@@H]1NC(=O)[C@@H](CO)NC(=O)[C@H](CC(=O)O)NC(=O)[C@@H](CC(C)C)NC(=O)[C@@H](N)CSSC[C@@H](C(=O)O)NC1=O [C*dLDdSLC*]
- ring closure, yield after HPLC ([1]; from H-Cys(Acm)-dLeu-Asp-dSer-Leu-Cys(Acm)-OH, disulfide bond, AgOTf/anisole/TFA, then DMSO/HCl, 50% DMSO-1N HCl, 2 steps): 62%

Molecule: CC(C)C[C@@H]1NC(=O)[C@H](Cc2c[nH]cn2)NC(=O)[C@H](CC(=O)O)NC(=O)[C@@H](c2ccccc2)NC(=O)[C@@H](N)CSSC[C@@H](C(=O)O)NC1=O [C*dPhgDHLC*]
- ring closure, yield after HPLC ([1]; from H-Cys(Acm)-dPhg-Asp-His-Leu-Cys(Acm)-OH, disulfide bond, AgOTf/anisole/TFA, then DMSO/HCl, 50% DMSO-1N HCl, 2 steps): 55%

Molecule: CC[C@H](C)[C@@H]1NC(=O)CCSSC[C@@H](C(=O)O)NC(=O)[C@H](CC(C)C)NC(=O)[C@H](Cc2c[nH]cn2)NC(=O)[C@H](CC(=O)O)NC1=O [Mpr*IDHLC*]
- ring closure, yield after HPLC ([1]; from Mpr(Acm)-Ile-Asp-His-Leu-Cys(Acm)-OH, disulfide bond, AgOTf/anisole/TFA, then DMSO/HCl, 50% DMSO-1N HCl, 2 steps): 33%

Molecule: CC[C@H](C)[C@@H]1NC(=O)[C@@H](N)C(C)(C)SSC[C@@H](C(=O)O)NC(=O)[C@H](CC(C)C)NC(=O)[C@H](Cc2c[nH]cn2)NC(=O)[C@H](CC(=O)O)NC1=O [Pen*IDHLC*]
- ring closure, yield after HPLC ([1]; from H-Pen(Acm)-Ile-Asp-His-Leu-Cys(Acm)-OH, disulfide bond, AgOTf/anisole/TFA, then DMSO/HCl, 50% DMSO-1N HCl, 2 steps): 30%

- stability in mouse serum [2]: stable for 24 hours
Molecule: CC[C@H](C)[C@@H]1NC(=O)[C@@H](N)CSSC[C@@H](C(=O)O)NC(=O)[C@H](CC(C)C)NC(=O)[C@H](Cc2c[nH]cn2)NC(=O)[C@H](CCS(C)(=O)=O)NC1=O [Sequence Number 17, C*IMet(O2)HLC*] (H-CI[Met(O2)]HLC-OH; disulfide 1-6; N-terminus and C-terminus assumed)

- IC50 [3]: 1200 nM
Molecule: CC[C@H](C)[C@@H]1NC(=O)[C@@H](N)CSSC[C@@H](C(=O)O)NC(=O)[C@H](CC(C)C)NC(=O)[C@H](Cc2c[nH]cn2)NC(=O)[C@H](CC(=O)O)NC1=O [compound 4] (H-CIDHLC-OH; disulfide 1-6)

- IC50 [3]: 1600 nM
Molecule: CC[C@H](C)[C@@H]1NC(=O)[C@@H](N)CSSC[C@@H](C(=O)O)NC(=O)[C@H](CC(C)C)NC(=O)[C@H](Cc2c[nH]cn2)NC(=O)[C@H](CCC(=O)O)NC1=O [compound 9] (H-CIEHLC-OH; disulfide 1-6)

- IC50 [3]: 800 nM
Molecule: CC[C@H](C)[C@@H]1NC(=O)[C@@H](N)CSSC[C@@H](C(=O)O)NC(=O)[C@H](CC(C)C)NC(=O)[C@H](Cc2c[nH]cn2)NC(=O)[C@H](CCS(C)(=O)=O)NC1=O [compound 17] (H-CI[Met(O2)]HLC-OH; disulfide 1-6)

- IC50 [3]: 120 nM
Molecule: CC(C)C[C@@H]1NC(=O)[C@H](Cc2c[nH]cn2)NC(=O)[C@H](CC(=O)O)NC(=O)[C@H](C2CCCCC2)NC(=O)[C@@H](N)CSSC[C@@H](C(=O)O)NC1=O [compound 22] (H-C[Chg]DHLC-OH; disulfide 1-6)

- IC50 [3]: 650 nM
Molecule: CC(C)C[C@@H]1NC(=O)[C@H](Cc2c[nH]cn2)NC(=O)[C@H](CC(=O)O)NC(=O)[C@@H]2Cc3ccccc3CN2C(=O)[C@@H](N)CSSC[C@@H](C(=O)O)NC1=O [compound 25] (H-C[Tic]DHLC-OH; disulfide 1-6)

- IC50 [3]: 500 nM
Molecule: CC[C@H](C)[C@@H]1NC(=O)[C@@H](N)CSSC[C@@H](C(=O)O)NC(=O)[C@H](CC(C)C)NC(=O)[C@H](Cc2ccccn2)NC(=O)[C@H](CC(=O)O)NC1=O [compound 29] (H-CID[2Pal]LC-OH; disulfide 1-6)

- IC50 [3]: 450 nM
Molecule: CC[C@H](C)[C@@H]1NC(=O)[C@@H](N)CSSC[C@@H](C(=O)O)NC(=O)[C@H](CC(C)C)NC(=O)[C@H](Cc2c[nH]c3ccccc23)NC(=O)[C@H](CC(=O)O)NC1=O [compound 31] (H-CIDWLC-OH; disulfide 1-6)

- IC50 [3]: 600 nM
Molecule: CC[C@H](C)[C@@H]1NC(=O)[C@@H](N)CSSC[C@@H](C(=O)O)NC(=O)[C@H](CC(C)C)NC(=O)[C@H](Cc2ccc3ccccc3c2)NC(=O)[C@H](CC(=O)O)NC1=O [compound 34] (H-CID[2Nal]LC-OH; disulfide 1-6; N-terminus and C-terminus assumed)

- IC50 [3]: 250 nM
Molecule: CC[C@H](C)[C@@H]1NC(=O)[C@H](Cc2ccccc2)NC(=O)[C@H](CC(=O)O)NC(=O)[C@H]([C@@H](C)CC)NC(=O)[C@@H](N)CSSC[C@@H](C(=O)O)NC1=O [compound 48] (H-CIDFIC-OH; disulfide 1-6)

Molecule: CC[C@H](C)[C@@H]1NC(=O)[C@H](N)CSSC[C@@H](C(=O)O)NC(=O)[C@H](CC(C)C)NC(=O)[C@H](Cc2c[nH]cn2)NC(=O)[C@H](CC(=O)O)NC1=O [dC*IDHLC*]
- ring closure, yield after HPLC ([1]; from H-dCys(Acm)-Ile-Asp-His-Leu-Cys(Acm)-OH, disulfide bond, AgOTf/anisole/TFA, then DMSO/HCl, 50% DMSO-1N HCl, 2 steps): 39%

Molecule: C*IDSLC*
- ring closure, yield after HPLC [1, 4]: 62%

Molecule: C*IDTLC*
- ring closure, yield after HPLC [1, 4]: 70%

Molecule: C*IDYLC*
- ring closure, yield after HPLC ([1]; disulfide bond, K3[Fe(CN)6]/NH3 pH 7.5-8, water, 0.43 mM): 61%

Molecule: D(CO—)ChgMet(O2)PhgLDpr(NH—)
- ring closure, yield after HPLC [1, 5]: 7%

Molecule: D(CO—)ChgMet(O2)dPhgLDpr(NH—)
- ring closure, yield after HPLC [1, 5]: 10%
